Experimental data as given in patent US20190290614A1, “Methods for Reducing Recurrence of Tumors” (Beth Israel Deaconess Medical Center, Inc., priority 2016, published 2019).

Assays:
[1] = test system: Lewis Lung carcinoma (LLC); experiment: spontaneous LLC lung metastasis model after primary tumor resection (survival); format: in vivo, mice; details: for mimicked the action of ketorolac in prolonging survival after primary LLC tumor resection: FR122047 20, TFAP 30, SC-560 30, indomethacin 3 mg/kg i.p., celecoxib 60 mg/kg oral gavage, FIG. 1B
From the text: Doses were selected based on previous publications by the present inventors and others, and/or by analogy to the human dose.

[2] = used alone; single subcutaneous injection before the resection; cited from earlier work
[3] = in vivo; cited from earlier work
T241 fibrosarcoma = experiment: liver biopsy-stimulated lung metastasis post primary tumor resection; format: in vivo; details: pre-surgical administration; FIG. 2D
From the text: (D) Liver biopsy stimulated lung metastasis post primary tumor resection (T241 fibrosarcoma).
In addition, liver biopsy alone stimulated lung metastasis post primary tumor resection in a T241 fibrosarcoma model (O'Reilly et al., Cell. 1994 Oct. 21; 79(2):315-28 and Panigraphy et al., J Clin Invest. 2012 January; 122(1):178-91).

MMTV-PyMT breast tumor = experiment: surgery-stimulated (laparotomy) spontaneous tumor model, genetically engineered murine breast tumor model; format: in vivo; details: FIG. 1C
E0771 breast cancer = experiment: spontaneous E0771 breast cancer metastasis model after primary tumor resection; format: in vivo; details: pre-operative; FIG. 1D
LLC [4] = experiment: LLC tumor resection in nude athymic mice; format: in vivo, nude athymic C57BL/6 mice; details: administered prior to LLC tumor resection; FIG. 3A
Protocol: To determine whether the effects of Ketorolac were due to actions on the immune system, the effects of ketorolac administered prior to LLC tumor resection was determined in nude athymic C57BL/6 mice, SCID mice, and Rag1 KO Mice.

B16F10 = experiment: laparotomy-induced tumor dormancy escape in Rag1 KO mice; format: in vivo; details: B16F10, 1×10^3; FIG. 3C
LLC [5] = experiment: second tumor challenge 200 days after LLC tumor resection; format: in vivo, immunocompetent mice (C57BL6); details: 200 days post LLC tumor resection, ketorolac preoperatively; FIG. 4A
Protocol: To determine whether perioperative COX-1 inhibition produces a durable immune response to the cancer, immunocompetent mice (C57BL6) at 200 days after undergoing LLC tumor resection during which they were administered ketorolac preoperatively, were given a second tumor challenge with the same tumor types (LLC).

B16F10 melanoma [6] = experiment: laparotomy-stimulated primary tumor dormancy escape, B16F10; format: in vivo; details: pre-surgical administration; 1×10^3 cells; FIG. 2A
From the text: (§1) (A-C) Surgery (i.e. laparotomy) stimulated primary tumor dormancy escape in a B16F10 melanoma (1×10^3 cells), Lewis lung carcinoma (LLC 1×10^4 cells), and EL4 lymphoma (1×10^4 cells). Images show representative tumors on Day 35 post-injection; Scale bar, 1 cm.
(§2) Surgery (i.e., laparotomy, which is a surgical procedure involving a large incision through the abdominal wall to gain access into the abdominal cavity, also known as a celiotomy) stimulated primary tumor dormancy escape in a B16F10 melanoma (1×10^3 cells, see Kalpainen et al., PLoS One. 2007 Feb. 28; 2(2):e260 and Panigraphy et al., J Clin Invest. 2012 January; 122(1):178-91; FIG. 2A), Lewis lung carcinoma (LLC 1×10^4 cells, FIG. 2B), and EL4 lymphoma (1×10^4 cells, FIG. 2C).

LLC tumor cells = experiment: Hematoxylin & Eosin analysis of lungs after LLC tumor resection; format: in vivo, mice; details: 240 days post-surgery; i.p. 7.5 mg/kg 2 hours prior to surgery; abundant LLC tumor cells at Day 0
From the text: Representative micrographs of 4 different mice per group (total of 10 mice/group).

prostate cancer = details: after radical prostatectomy for prostate cancer; retrospective; cited from earlier work
B16F10 melanoma [7] = experiment: third tumor challenge with a different tumor-type; format: in vivo, immunocompetent mice (C57BL6); details: same mice, FIG. 4A
LLC [8] = experiment: LLC tumor resection in WT and COX-2 KO mice (metastasis); format: in vivo; details: administered prior to surgery, FIG. 4B
EL4 lymphoma = experiment: laparotomy-stimulated primary tumor dormancy escape, EL4; format: in vivo; details: pre-surgical administration; 1×10^4 cells; FIG. 2C
From the text: as §1, §2

[9] = test system: Lewis lung carcinoma (LLC); experiment: laparotomy-stimulated primary tumor dormancy escape, LLC; format: in vivo; details: pre-surgical administration; 1×10^4 cells; FIG. 2B
From the text: as §1, §2

[10] = human, in vivo; cited from earlier work
human lung tumor (H460) = experiment: human lung tumor primary tumor resection in SCID mice; format: in vivo; details: FIG. 3B

With Nc1ccc(NC(=O)c2ccc(C(F)(F)F)cc2)nc1 [TFAP, N-(5-amino-2-pyridinyl)-4-trifluoromethylbenzamide] as the molecule, how does the “mimicked the action of ketorolac in prolonging survival after primary LLC tumor resection” value [1] read?
The value was “mimicked the action of ketorolac”.

With COc1ccc(-c2nc(C(=O)N3CCN(C)CC3)sc2-c2ccc(OC)cc2)cc1.Cl [FR122047, 1-[[4,5-bis(4-Methoxyphenyl)-2-thiazolyl]carbonyl]-4-methylpiperazine hydrochloride] as the molecule, how does the “mimicked the action of ketorolac in prolonging survival after primary LLC tumor resection” value [1] read?
Its value is “mimicked the action of ketorolac”.

With CCc1cccc2c3c([nH]c12)C(CC)(CC(=O)O)OCC3 (centres unmarked) [etodolac] as the molecule, how does the spontaneous postoperative metastasis [2] read?
Its spontaneous postoperative metastasis is “did not prevent spontaneous postoperative metastasis”.

Which “effect on angiogenesis, tumor cell proliferation, primary tumor growth and metastasis” value [3] does the source give for CN1CC[C@]23c4c5ccc(O)c4O[C@H]2[C@@H](O)C=C[C@H]3[C@H]1C5 [morphine] here?
The value was “stimulates angiogenesis, tumor cell proliferation, primary tumor growth and metastasis”.

What does the source list for O=C(c1ccccc1)c1ccc2n1CCC2C(=O)O (centres unmarked) [ketorolac, ketorolac tromethamine]?
biopsy-stimulated lung metastasis (T241 fibrosarcoma): inhibited this biopsy-stimulated lung metastasis; survival (MMTV-PyMT breast tumor): prolonged survival; survival after primary tumor resection (E0771 breast cancer): prolonged survival; anti-metastatic activity (LLC [4]): did not have anti-metastatic activity; laparotomy-induced tumor dormancy escape (B16F10): did not inhibit laparotomy-induced tumor dormancy escape; response to second tumor challenge (LLC) (LLC [5]): resisted a second tumor challenge; surgery-induced tumor dormancy escape (B16F10 melanoma [6]): inhibited surgery-induced tumor dormancy escape; tumor micrometastasis by immunohistochemistry ([1]; 180 to 200 days, micrometastasis present on day of tumor resection): no evidence of tumor micrometastasis; survival after primary tumor resection ([1]; pre-operative (2 hrs prior to surgery), ketorolac 7.5 mg/kg I.P., celecoxib 30 mg/kg bid po, FIG. 1A): prolonged survival; "cured" (long term survival) ([1]; pre-operative, syngeneic LLC lung cancer model): approximately 50 % of mice; tumor cells in lungs (Hematoxylin & Eosin) (LLC tumor cells): no tumor cells were detectable; benefit of perioperative use (prostate cancer): no benefit; response to third tumor challenge (B16F10 melanoma) (B16F10 melanoma [7]): exhibited rapid tumor growth; tumor metastasis (LLC [8]; COX-2 knockout (KO) mice): prevented tumor metastasis; tumor metastasis (LLC [8]; WT mice): prevented tumor metastasis; surgery-induced tumor dormancy escape (EL4 lymphoma): inhibited surgery-induced tumor dormancy escape; surgery-induced tumor dormancy escape [9]: inhibited surgery-induced tumor dormancy escape; major side effect [10]: increased bleeding time; metastases after primary tumor resection (human lung tumor (H460)): did not inhibit metastases
